Assay results: US10189810B2, “Pyrazolyl-substituted pyridone compounds as serine protease inhibitors” (VERSEON CORPORATION, priority 2014, dated 2019)

Experiments:
malignant breast tumors = settings: treated mice, cited from earlier work
Human thrombin = target: T1, Human thrombin (Homo sapiens, UniProt P00734); assay: thrombin protease inhibition assay (chromogenic substrate S-2238); format: biochemical; settings: 3 nM thrombin, 125 μM S-2238, 10 min pre-incubation, RT, read at 405 nm
T1 construct: Thrombin (fIIa, the active form of prothrombin) is another serine protease; purchased Haematologic Technologies Inc
Procedure: The thrombin activity reported herein (e.g., Table A) was obtained as follows. […] Thrombin was assayed in buffer containing 0.05 M Tris (pH 7.4), 0.015 M NaCl and 0.01% PEG-8000. The final concentration of enzyme used was 3 nM thrombin. […] All assays were performed in 96-well microtiter plates at room temperature (RT). […] Inhibitor IC50 values were determined by adding test compound as ten point, three-fold serial dilutions in buffer solution, as known in the art. The plate was read at 10 minutes after substrate addition. The IC50 was calculated by plotting the percent (%) inhibition against compound concentration and fitting the data to a constrained four parameter sigmoidal curve, as known in the art.

Human KLKB1 protein = target: T2, Human KLKB1 protein (Homo sapiens, UniProt P03952); assay: KLKB1 kallikrein protease inhibition assay (chromogenic substrate S-2302); format: biochemical; settings: 3 nM KLKB1, 250 μM S-2302, 10 min pre-incubation, RT, read at 405 nm
T2 construct: purchased Enzyme Research Labs
Procedure: The KLKB1 kallikrein activity reported herein (e.g., Table A) was obtained as follows. Human KLKB1 protein was obtained from Enzyme Research Labs. The chromogenic substrate S-2302 was obtained from DiaPharma. KLKB1 was assayed in buffer containing 0.05 M Tris (pH 7.4), 0.01 M NaCl and 0.2% w/v PEG-8000. The final concentration of enzyme used was 3 nM KLKB1. The final concentration of substrate used was 250 μM S-2302 for KLKB1. All assays were performed in 96-well microtiter plates at room temperature (RT). […] The plate was read at 10 minutes after substrate addition. The IC50 was calculated by plotting the percent (%) inhibition against compound concentration and fitting the data to a constrained four parameter sigmoidal curve, as known in the art.

T2 sequence (P03952 391-638 limits assumed): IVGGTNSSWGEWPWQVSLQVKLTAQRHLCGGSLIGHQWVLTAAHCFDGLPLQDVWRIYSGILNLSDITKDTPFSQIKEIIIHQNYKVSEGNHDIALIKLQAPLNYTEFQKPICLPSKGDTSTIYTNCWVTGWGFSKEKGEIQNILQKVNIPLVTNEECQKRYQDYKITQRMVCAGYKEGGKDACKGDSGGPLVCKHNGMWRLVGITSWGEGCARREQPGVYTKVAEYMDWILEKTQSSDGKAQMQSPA
T2 sequence (P03952 20-390 partner limits assumed): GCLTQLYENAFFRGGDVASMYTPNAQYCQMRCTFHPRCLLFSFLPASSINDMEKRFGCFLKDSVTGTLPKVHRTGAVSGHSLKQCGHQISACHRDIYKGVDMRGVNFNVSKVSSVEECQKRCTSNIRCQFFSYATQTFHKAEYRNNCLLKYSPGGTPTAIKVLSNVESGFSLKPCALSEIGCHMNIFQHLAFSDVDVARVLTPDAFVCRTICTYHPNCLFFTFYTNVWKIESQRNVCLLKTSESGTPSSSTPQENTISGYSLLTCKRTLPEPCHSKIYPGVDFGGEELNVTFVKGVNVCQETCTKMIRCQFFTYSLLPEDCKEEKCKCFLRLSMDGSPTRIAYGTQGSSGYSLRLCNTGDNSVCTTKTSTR

SMILES | IC50 (Human thrombin) [nM] | IC50 (Human KLKB1 protein) [nM] | reduction in tumor volume (malignant breast tumors; at 4 weeks) [%] | reduced tumor cells in the blood and liver micrometastases (malignant breast tumors)
CCCCCCOC(=O)N=C(N)c1ccc(NCc2nc3cc(C(=O)N(CCC(=O)OCC)c4ccccn4)ccc3n2C)cc1 [dabigatran etexilate] | – | – | 50 | 50-60%
COc1ccccc1C(=O)n1nc(-c2c[nH]c(=O)c(Br)c2)cc1NCc1ccc(Cl)s1 [Entry 5, 3-bromo-5-(5-[(5-chlorothiophen-2-yl)methyl]amino-1-(2-methoxybenzoyl)-1H-pyrazol-3-yl)-1,2-dihydropyridin-2-one] | 100 to 1000 | 1000 to 10000 | – | –
O=c1[nH]cc(Br)cc1-c1cc(NCc2ccc(Cl)s2)[nH]n1 [Entry 42, 5-bromo-3-(5-[(5-chlorothiophen-2-yl)methyl]amino-1H-pyrazol-3-yl)-1,2-dihydropyridin-2-one] | > 100000 | 10000 to 100000 | – | –
O=C(c1ccoc1)n1nc(-c2ccc(Br)c(=O)[nH]2)cc1NCc1ccc(Cl)s1 [Entry 7, 3-bromo-6-(5-[(5-chlorothiophen-2-yl)methyl]amino-1-(furan-3-carbonyl)-1H-pyrazol-3-yl)-1,2-dihydropyridin-2-one] | 100 to 1000 | 10000 to 100000 | – | –
O=C(Cn1ccc(-c2cc(NCc3ccc(Cl)s3)n(C(=O)c3ccoc3)n2)cc1=O)N1CCOCC1 [Entry 20, 4-(5-[(5-chlorothiophen-2-yl)methyl]amino-1-(furan-3-carbonyl)-1H-pyrazol-3-yl)-1-[2-(morpholin-4-yl)-2-oxoethyl]-1,2-dihydropyridin-2-one] | 100 to 1000 | 1000 to 10000 | – | –
O=c1cc(-c2cc(NCc3ccc(Cl)s3)[nH]n2)ccn1Cc1cccnc1 [Entry 30, 4-(5-[(5-chlorothiophen-2-yl)methyl]amino-1H-pyrazol-3-yl)-1-(pyridin-3-ylmethyl)-1,2-dihydropyridin-2-one] | > 100000 | > 100000 | – | –
O=c1cc(-c2cc(NCc3ccc(Cl)s3)[nH]n2)cc[nH]1 [Entry 29, 4-(5-[(5-chlorothiophen-2-yl)methyl]amino-1H-pyrazol-3-yl)-1,2-dihydropyridin-2-one] | > 100000 | > 100000 | – | –
CC(C)(C)C(=O)n1nc(-c2ccn(Cc3ccccn3)c(=O)c2)cc1NCc1ccc(Cl)s1 [Entry 10, 4-(5-[(5-chlorothiophen-2-yl)methyl]amino-1-(2,2-dimethylpropanoyl)-1H-pyrazol-3-yl)-1-(pyridin-2-ylmethyl)-1,2-dihydropyridin-2-one] | < 100 | 1000 to 10000 | – | –
O=C(c1ccoc1)n1nc(-c2cc[nH]c(=O)c2)cc1NCc1ccc(Cl)s1 [Entry 16, 4-(5-[(5-chlorothiophen-2-yl)methyl]amino-1-(furan-3-carbonyl)-1H-pyrazol-3-yl)-1,2-dihydropyridin-2-one] | < 100 | 1000 to 10000 | – | –
C=Cc1ccc(-c2cc(NCc3ccc(Cl)s3)n(C(=O)C(C)(C)C)n2)[nH]c1=O [Entry 46, 6-(5-[(5-chlorothiophen-2-yl)methyl]amino-1-(2,2-dimethylpropanoyl)-1H-pyrazol-3-yl)-3-ethenyl-1,2-dihydropyridin-2-one] | < 100 | 10000 to 100000 | – | –
O=C(c1ccsc1)n1nc(-c2cc[nH]c(=O)c2)cc1NCc1ccc(Cl)s1 [Entry 22, 4-(5-[(5-chlorothiophen-2-yl)methyl]amino-1-(thiophene-3-carbonyl)-1H-pyrazol-3-yl)-1,2-dihydropyridin-2-one] | < 100 | 100 to 1000 | – | –

Continued, in another order:

IC50 (Human thrombin) [nM] | IC50 (Human KLKB1 protein) [nM] | SMILES | reduction in tumor volume (malignant breast tumors; at 4 weeks) [%] | reduced tumor cells in the blood and liver micrometastases (malignant breast tumors)
< 100 | 1000 to 10000 | CC(C)(C)C(=O)n1nc(-c2cc(N3CCOCC3)c[nH]c2=O)cc1NCc1ccc(Cl)s1 [Entry 1, 3-(5-[(5-chlorothiophen-2-yl)methyl]amino-1-(2,2-dimethylpropanoyl)-1H-pyrazol-3-yl)-5-(morpholin-4-yl)-1,2-dihydropyridin-2-one] | – | –
< 100 | 100 to 1000 | O=C(c1ccoc1)n1nc(-c2ccn(CCN3CCOCC3)c(=O)c2)cc1NCc1ccc(Cl)s1 [Entry 21, 4-(5-[(5-chlorothiophen-2-yl)methyl]amino-1-(furan-3-carbonyl)-1H-pyrazol-3-yl)-1-[2-(morpholin-4-yl)ethyl]-1,2-dihydropyridin-2-one] | – | –
< 100 | 100 to 1000 | O=C(c1ccsc1)n1nc(-c2cc(Br)c[nH]c2=O)cc1NCc1ccc(Cl)s1 [Entry 41, 5-bromo-3-(5-[(5-chlorothiophen-2-yl)methyl]amino-1-(thiophene-3-carbonyl)-1H-pyrazol-3-yl)-1,2-dihydropyridin-2-one] | – | –
< 100 | 10000 to 100000 | CC(C)(C)C(=O)n1nc(-c2cc(Br)[nH]c(=O)c2)cc1NCc1ccc(Cl)s1 [Entry 48, 6-bromo-4-(5-[(5-chlorothiophen-2-yl)methyl]amino-1-(2,2-dimethylpropanoyl)-1H-pyrazol-3-yl)-1,2-dihydropyridin-2-one] | – | –
< 100 | 100 to 1000 | O=C(c1ccoc1)n1nc(-c2ccn(Cc3ccccn3)c(=O)c2)cc1NCc1ccc(Cl)s1 [Entry 18, 4-(5-[(5-chlorothiophen-2-yl)methyl]amino-1-(furan-3-carbonyl)-1H-pyrazol-3-yl)-1-(pyridin-2-ylmethyl)-1,2-dihydropyridin-2-one] | – | –
< 100 | < 100 | O=C(c1ccsc1)n1nc(-c2ccn(Cc3ccccn3)c(=O)c2)cc1NCc1ccc(Cl)s1 [Entry 24, 4-(5-[(5-chlorothiophen-2-yl)methyl]amino-1-(thiophene-3-carbonyl)-1H-pyrazol-3-yl)-1-(pyridin-2-ylmethyl)-1,2-dihydropyridin-2-one] | – | –
< 100 | 10000 to 100000 | CC(C)(C)C(=O)n1nc(-c2cc(-c3ccccc3)c[nH]c2=O)cc1NCc1ccc(Cl)s1 [Entry 2, 3-(5-[(5-chlorothiophen-2-yl)methyl]amino-1-(2,2-dimethylpropanoyl)-1H-pyrazol-3-yl)-5-phenyl-1,2-dihydropyridin-2-one] | – | –
